Data set [1] is described as follows: body and spleen weight / systemic toxicity, combination with Dox. It is filed as in vivo, BALB/c mice. To be noted: Dox 5 mg/kg i.p. every 72 hr; n=4 mice per group.
Data set [2] has as its system mammary tumor. To be noted: ref [87]; cited from earlier work.

These results are taken from article PMC11952368 (bioRxiv, 2025).

On to `COc1cccc2c1C(=O)c1c(O)c3c(c(O)c1C2=O)C[C@@](O)(C(=O)CO)C[C@@H]3O[C@H]1C[C@H](N)[C@H](O)[C@H](C)O1` [Dox, doxorubicin], for which, in data set [1], the “body and spleen weight” value was “loss of body and spleen weight”.
Turning to `Cc1ccc(=O)n(-c2ccccc2)c1` [Pirfenidone], in data set [2], the “tumor ECM normalization and chemotherapy response” value was “normalizes the tumor ECM for enhanced chemotherapy response”.
